# Test results taken from the supplement of paper PMC10307832.
# How the values were obtained:
# Assay in all cases: relative viability (nuclei count vs DMSO), 5 days (fraction); higher = more cells survive
# Irinotecan + OSI-027 = compound: CCc1c2c(nc3ccc(OC(=O)N4CCC(N5CCCCC5)CC4)cc13)-c1cc3c(c(=O)n1C2)COC(=O)[C@]3(O)CC [Irinotecan] + COc1cccc2cc(-c3nc([C@H]4CC[C@H](C(=O)O)CC4)n4ncnc(N)c34)[nH]c12 [OSI-027] (partner 0.5 µM)
# Outline: (§1)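 Lung cancer cell lines were pin-tool dosed in 1536-well plates on the day after seeding, with either a lone drug or a fixed anchor-drug dose plus five library-drug doses (not always all listed) in √10 steps. Nuclei were counted on 4× images after 5 days. Relative viability is the ratio of treated-well to vehicle-well nuclei counts, with each value a median of duplicate plates.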
# MK-8033 + Palbociclib = compound: Cn1cc(-c2cnc3ccc4ccc(CS(=O)(=O)NCc5ccccn5)cc4c(=O)c3c2)cn1 [MK-8033] + CC(=O)c1c(C)c2cnc(Nc3ccc(N4CCNCC4)cn3)nc2n(C2CCCC2)c1=O [Palbociclib] (partner 0.5 µM)
# Outline: as §1
# MK-8033 + Foretinib = compound: Cn1cc(-c2cnc3ccc4ccc(CS(=O)(=O)NCc5ccccn5)cc4c(=O)c3c2)cn1 [MK-8033] + COc1cc2c(Oc3ccc(NC(=O)C4(C(=O)Nc5ccc(F)cc5)CC4)cc3F)ccnc2cc1OCCCN1CCOCC1 [Foretinib] (partner 0.25 µM)
# Outline: as §1
# MK-8033 + Pictilisib = compound: Cn1cc(-c2cnc3ccc4ccc(CS(=O)(=O)NCc5ccccn5)cc4c(=O)c3c2)cn1 [MK-8033] + CS(=O)(=O)N1CCN(Cc2cc3nc(-c4cccc5[nH]ncc45)nc(N4CCOCC4)c3s2)CC1 [Pictilisib] (partner 1 µM)
# Outline: as §1
Cell Line,relative viability (Irinotecan + OSI-027; first compound 0.6325 µM),relative viability (Irinotecan + OSI-027; first compound 2 µM),relative viability (Irinotecan + OSI-027; first compound 6.325 µM),relative viability (Irinotecan + OSI-027; first compound 20 µM),relative viability (MK-8033 + Palbociclib; first compound 0.02 µM),relative viability (MK-8033 + Palbociclib; first compound 0.06325 µM),relative viability (MK-8033 + Palbociclib; first compound 0.2 µM),relative viability (MK-8033 + Palbociclib; first compound 2 µM),relative viability (MK-8033 + Foretinib; first compound 0.02 µM),relative viability (MK-8033 + Foretinib; first compound 0.06325 µM),relative viability (MK-8033 + Foretinib; first compound 0.2 µM),relative viability (MK-8033 + Foretinib; first compound 0.6325 µM),relative viability (MK-8033 + Foretinib; first compound 2 µM),relative viability (MK-8033 + Pictilisib; first compound 0.02 µM),relative viability (MK-8033 + Pictilisib; first compound 0.06325 µM),relative viability (MK-8033 + Pictilisib; first compound 0.2 µM),relative viability (MK-8033 + Pictilisib; first compound 0.6325 µM),relative viability (MK-8033 + Pictilisib; first compound 2 µM),relative viability (MK-8033 + Palbociclib; first compound 0.6325 µM)
NCI-H23,0.327,0.603,0.176,0.288,0.463,0.576,0.406,0.413,0.826,0.932,0.961,1.02,0.942,0.377,0.397,0.378,0.561,0.384,–
NCI-H322M,0.414,0.479,0.521,0.216,0.531,0.443,0.45,0.433,0.918,0.868,0.955,1.03,0.965,0.511,0.438,0.496,0.464,0.523,0.49
NCI-H358,0.715,0.377,0.217,0.125,0.144,0.129,0.128,0.151,0.801,0.511,0.72,0.565,0.643,0.306,0.344,0.331,0.395,0.227,0.136
NCI-H441,0.371,0.448,0.281,0.327,0.182,0.189,0.217,0.238,0.842,1.02,0.967,0.968,0.896,0.45,0.446,0.416,0.446,0.444,0.275
NCI-H460,0.347,0.494,0.12,0.043,0.162,0.147,0.103,0.172,1.02,0.961,0.947,1.02,1.01,0.432,0.285,0.395,0.253,0.402,0.177
NCI-H520,0.292,0.316,0.218,0.192,0.209,0.231,0.184,0.205,0.992,0.777,0.762,0.844,0.556,0.28,0.221,0.295,0.283,0.323,0.254
NCI-H647,0.564,0.634,0.277,0.183,0.365,0.338,0.351,0.43,1.09,1.15,1.02,1.17,1.1,0.444,0.421,0.398,0.41,0.471,0.404
NCI-H650,0.467,0.587,0.316,0.277,0.346,0.316,0.324,0.307,1.06,1.08,1.02,1.02,1.02,0.849,0.824,0.871,0.723,0.834,0.316
NCI-H661,0.653,0.654,0.415,0.212,0.389,0.369,0.403,0.413,1.04,0.995,0.997,0.919,0.985,0.447,–,0.394,0.454,0.423,0.397
NCI-H727,0.338,0.499,0.391,0.428,0.668,0.617,0.653,0.657,0.817,–,0.859,0.685,1.06,0.52,0.451,0.354,0.5,0.273,0.612
NCI-H838,0.508,0.37,0.368,0.257,0.213,0.207,0.217,0.22,1.05,0.993,0.994,0.89,0.954,0.462,0.447,0.425,0.423,0.394,0.213
NCI-H1355,–,0.375,0.269,0.25,0.372,0.379,0.375,0.381,0.888,0.886,0.961,0.862,0.909,0.424,0.302,0.442,0.393,0.442,0.415
NCI-H1395,0.352,0.561,0.45,0.438,0.499,0.588,0.654,0.624,0.989,0.855,0.939,0.98,0.994,0.726,0.579,0.683,0.606,0.628,0.612
NCI-H1437,0.797,0.722,0.378,0.184,0.275,0.317,0.323,0.3,1.21,1.3,1.19,1.23,1.19,0.56,0.409,0.384,0.449,0.482,0.303
NCI-H1650,–,0.902,0.575,0.196,0.363,0.296,0.324,0.336,1.13,1.04,1.07,1.08,0.951,0.601,0.469,0.646,0.527,0.544,0.336
NCI-H1651,0.532,0.485,0.349,0.174,0.51,0.498,0.514,0.521,0.844,0.637,0.879,0.692,0.648,0.602,0.528,0.433,0.631,0.507,0.536
NCI-H1666,0.792,0.809,0.544,0.26,0.684,0.627,0.523,0.598,1.02,0.842,0.911,0.953,1.01,0.365,0.31,0.459,0.422,0.481,0.707
